Reference: patent US20250163074A1, “CDK Inhibitors And Their Use As Pharmaceuticals” (Prelude Therapeutics Incorporated, priority 2020, published 2025)

Assays:
CDK4/Cyclin D1 = CDK4/Cyclin D1 (Homo sapiens (Human), UniProt P11802); experiment: CDK4/CyclinD1 enzymatic activity assay (TR-FRET); type: biochemical; conditions: CDK4/CyclinD1 1 nM, ATP 2 mM, read-out: CDK4_D1 IC50
Summary of the method: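 Insect-cell CDK4/Cyclin D1 (1 nM) with ULight-4E-BP1 (100 nM) and 2 mM ATP in HEPES pH 7.4 buffer, preincubated 20 min with compound (9-dose, 3-fold dilutions); 10 mM MgCl2 started the reaction, run 60 min at 37 °C. EDTA/Eu-anti-phospho-4E-BP1 TR-FRET detection; IC50 from 4-parameter Hill fit.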

[1] = system: MCF7 adenocarcinoma cell line; experiment: Cell proliferation studies in MCF7 cells (ATP-Lite); type: cell-based; conditions: Homo sapiens, 240 h, 10 days incubation, cell viability by ATP-Lite luminescence, read-out: PROLIFERATION_CTG_MCF7 IC50
Summary of the method: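 MCF7 cells, seeded at 100 or 200 cells/well, were exposed for 10 days at 37 °C to a 9-point, 3-fold dilution series in quadruplicate, with media exchange and re-dosing on day 5. Viability was read by ATP-Lite luminescence, normalized to background and DMSO, and fitted for IC50.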

[2] = Brain-to-plasma ratio determination in Sprague-Dawley rats; type: in vivo; conditions: rat, male Sprague-Dawley rats, four hours after a single oral dose (3, 4, 5, or 10 mg/kg)
Description: Example B: Brain-to-Plasma Ratio Determination in Sprague-Dawley Rats
The brain-to-plasma ratio (Kp) was determined in male Sprague-Dawley rats (7-9 weeks old) four hours after a single oral dose. Rats were acclimated and given free access to standard rodent chow and water throughout the entire study. Test articles were formulated as a solution at 0.3, 0.4, 0.5, or 1.0 mg/mL in a vehicle comprised of 10:15:75 (v:v:v) dimethylacetamide (DMA):Solutol HS15:water and delivered orally at a rate of 10 mL/kg to three rats to achieve final doses of 3, 4, 5, or 10 mg/kg, respectively. At 4 hours post-dose, blood samples were collected via jugular vein cannula into tubes containing K2EDTA as the anticoagulant and stored on ice. Blood samples were then centrifuged at 4° C. at 6000 rpm for 5 minutes, and the resulting plasma was placed into tubes and stored frozen at −80° C. until analysis. Whole brain samples were also collected at 4 hours post-dose. The weight of each brain was measured and recorded, and samples were immediately stored on dry ice. Brain samples were then transferred to storage at −80° C. until analysis.
Prior to analysis, brain samples were combined with water (4 mL/1 gram of brain) and homogenized. Prior to injection, plasma and brain homogenate samples and standards were prepared for analysis by precipitation with acetonitrile or 1:1 (v:v) methanol:acetonitrile. Samples were then thoroughly mixed, centrifuged at 4000 rpm for 15 minutes, and the resulting supernatant was transferred for analysis. Test article concentrations in plasma and brain homogenate were then determined by LC-MS/MS and quantified against calibration standards prepared to known concentrations in matched blank (analyte-free) biological matrix. The Kp was then determined by dividing the dilution-corrected brain concentration by the plasma concentration from each rat. A brain density of 1 gram/mL was assumed for all calculations.

CDK6/Cyclin D1 = CDK6/Cyclin D1 (Homo sapiens (Human), UniProt Q00534); experiment: CDK6/CyclinD1 enzymatic activity assay (TR-FRET); type: biochemical; conditions: CDK6/Cyclin D1 1 nM, ATP 250 μM, read-out: CDK6_D1 IC50
Summary of the method: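 Insect-cell-expressed CDK6/Cyclin D1 (1 nM) phosphorylated ULight-4E-BP1 (100 nM) with 250 μM ATP in HEPES pH 7.4 buffer. After 20 min compound preincubation, reactions were started with 10 mM MgCl2 and run 60 min at 37 °C. EDTA-quenched samples were read by TR-FRET with Eu-anti-P-4E-BP1; IC50 from 9-dose 4-parameter fits.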

CDK6/Cyclin D1, sequence (Q00534 whole entry): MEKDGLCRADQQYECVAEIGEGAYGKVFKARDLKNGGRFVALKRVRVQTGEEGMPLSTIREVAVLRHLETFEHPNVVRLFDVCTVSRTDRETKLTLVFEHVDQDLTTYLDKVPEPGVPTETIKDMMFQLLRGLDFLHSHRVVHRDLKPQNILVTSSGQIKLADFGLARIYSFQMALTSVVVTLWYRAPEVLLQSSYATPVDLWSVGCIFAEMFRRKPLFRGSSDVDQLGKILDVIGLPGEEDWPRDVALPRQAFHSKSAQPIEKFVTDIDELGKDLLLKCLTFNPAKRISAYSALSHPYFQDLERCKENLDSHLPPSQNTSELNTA
CDK6/Cyclin D1, sequence (P24385 whole entry partner): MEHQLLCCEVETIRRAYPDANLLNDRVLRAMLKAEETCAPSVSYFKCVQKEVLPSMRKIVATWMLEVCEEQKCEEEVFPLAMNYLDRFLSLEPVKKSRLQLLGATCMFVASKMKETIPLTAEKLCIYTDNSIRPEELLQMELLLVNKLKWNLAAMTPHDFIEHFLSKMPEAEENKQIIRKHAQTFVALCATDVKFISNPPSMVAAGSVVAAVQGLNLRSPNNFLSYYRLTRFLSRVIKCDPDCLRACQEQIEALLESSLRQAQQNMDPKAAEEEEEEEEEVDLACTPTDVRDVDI
CDK4/Cyclin D1, sequence (P11802 whole entry): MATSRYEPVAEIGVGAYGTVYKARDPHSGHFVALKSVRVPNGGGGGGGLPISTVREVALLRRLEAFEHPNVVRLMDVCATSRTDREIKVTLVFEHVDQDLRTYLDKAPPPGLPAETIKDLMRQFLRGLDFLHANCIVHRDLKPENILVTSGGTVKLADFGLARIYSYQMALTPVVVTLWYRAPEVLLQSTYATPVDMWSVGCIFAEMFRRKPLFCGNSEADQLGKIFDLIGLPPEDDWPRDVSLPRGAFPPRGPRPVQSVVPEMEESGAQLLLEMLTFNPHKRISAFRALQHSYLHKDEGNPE
CDK4/Cyclin D1, sequence (P24385 whole entry partner): as the sequence (P24385 whole entry partner) above

Compound	IC50 (CDK4/Cyclin D1) [nM]	IC50 [1] [nM]	Kp at 4 h [2]	IC50 (CDK6/Cyclin D1) [nM]
Cc1c(-c2nc(Nc3ccc(N4CCC5(CCN(C)C5)C4)cn3)ncc2F)sc2c1C(=O)N(C)CC21CCC1 (centres unmarked) [Example 55, 2′-(5-Fluoro-2-((5-(7-methyl-2,7-diazaspiro[4.4]nonan-2-yl)pyridin-2-yl)amino)pyrimidin-4-yl)-3′,5′-dimethyl-5′,6′-dihydro-4′H-spiro[cyclobutane-1,7′-thieno[3,2-c]pyridin]-4′-one]	≤ 20	20 to 200	< 1	≤ 20
Cc1cnc(Nc2ccc(C3CCN(C)CC3)cn2)nc1-c1cc2c(s1)C1(CCC1)CN(C)C2=O [Example 59, 5-Methyl-2-[5-methyl-2-[[5-(1-methylpiperidin-4-yl)pyridin-2-yl]amino]pyrimidin-4-yl]spiro[6H-thieno[3,2-c]pyridine-7,1′-cyclobutane]-4-one]	≤ 20	≤ 20	1 to 3	≤ 20
Cc1c(-c2nc(Nc3ccc(C4CCN(C)CC4)cn3)ncc2F)sc2c1C(=O)N(C)CC21CCCC1 [Example 63, 2′-(5-Fluoro-2-((5-(1-methyl-piperidin-4-yl)pyridin-2-yl)amino)pyrimidin-4-yl)-3′,5′-dimethyl-5′,6′-dihydro-4′H-spiro[cyclopentane-1,7′-thieno[3,2-c]pyridin]-4′-one]	≤ 20	20 to 200	≥ 3	≤ 20
CCN1CC2(C1)CN(c1ccc(Nc3ncc(F)c(-c4ccc5c(c4)C4(CCCC4)CN(C)C5=O)n3)nc1)C2 [Example 66, 6′-(2-((5-(6-Ethyl-2,6-diazaspiro[3.3]heptan-2-yl)pyridin-2-yl)amino)-5-fluoropyrimidin-4-yl)-2′-methyl-2′,3′-dihydro-1′H-spiro[cyclopentane-1,4′-isoquinolin]-1′-one]	≤ 20	20 to 200	1 to 3	20 to 200
CN1CCC(c2ccc(Nc3ncc(F)c(-c4ccc5c(c4)C4(CCCC4)CN(C)C5=O)n3)nc2)CC1 [Example 67, 6′-(5-Fluoro-2-((5-(1-methyl-piperidin-4-yl)pyridin-2-yl)amino)pyrimidin-4-yl)-2′-methyl-2′,3′-dihydro-1′H-spiro[cyclopentane-1,4′-isoquinolin]-1′-one]	≤ 20	20 to 200	≥ 3	20 to 200
CCN1CCC(c2ccc(Nc3ncc(F)c(-c4sc5c(c4C)C(=O)N(C)C54CC4)n3)nc2)C1 (centres unmarked) [Example 71, 2′-[2-[[5-(1-Ethylpyrrolidin-3-yl)pyridin-2-yl]amino]-5-fluoropyrimidin-4-yl]-3′,5′-dimethylspiro[cyclopropane-1,6′-thieno[2,3-c]pyrrole]-4′-one]	≤ 20	20 to 200	1 to 3	≤ 20
CCN1CC2(C1)CN(c1ccc(Nc3ncc(F)c(-c4ccc5c(c4)C4(CCCC4)N(C)C5=O)n3)nc1)C2 [Example 78, 6′-(2-((5-(6-Ethyl-2,6-diazaspiro[3.3]heptan-2-yl)pyridin-2-yl)amino)-5-fluoropyrimidin-4-yl)-2′-methylspiro[cyclopentane-1,1′-isoindolin]-3′-one]	≤ 20	20 to 200	1 to 3	20 to 200
CCN1CC2(CC(c3ccc(Nc4ncc(F)c(-c5sc6c(c5C)C(=O)N(C)C65CC5)n4)nc3)C2)C1 [Example 81, 2′-(2-((5-(2-Ethyl-2-azaspiro[3.3]heptan-6-yl)pyridin-2-yl)amino)-5-fluoropyrimidin-4-yl)-3′,5′-dimethylspiro[cyclopropane-1,6′-thieno[2,3-c]pyrrol]-4′(5′H)-one]	≤ 20	≤ 20	< 1	≤ 20
